Source: patent US20240199558A1, “2,4,6-TRISUBSTITUTED 1,3,5-TRIAZINES AS MODULATORS OF CX3CR1” (ASTRAZENECA AB, priority 2022, published 2024)

Tests used:
CX3CR1 [1] = biological target: T1, CX3CR1 (Homo sapiens (Human), UniProt P49238); assay: PathHunter β-arrestin recruitment assay; assay type: cell-based; conditions: CHO-K1 CX3CR1 β-Arrestin cells, with CX3CL1
Method: PathHunter β-Arrestin Recruitment Assay
β-Arrestin recruitment was measured using the PathHunter® eXpress enzyme fragment complementation assay (DiscoverX #93-0956E2). 3500 CHO-K1 CX3CR1 β-Arrestin cells/well in Opti-MEM were incubated together with different concentrations of CX3CL1 and antagonistic compound in a Greiner tissue culture treated flat-bottom 384-well plate. After 90 min of incubation at 37° C., the detection reagent supplied in the kit was added and incubation continued for 1 h at room temperature, before reading the luminescence with a Victor2 luminescence plate reader (PerkinElmer). The final DMSO concentration was held constant at 1%.

CX3CR1 [2] = biological target: T1, CX3CR1; assay: Flow adhesion for human B-lymphocyte cell line RPMI-8226; assay type: cell-based; conditions: RPMI-8226 cells under flow, recombinant full-length CX3CL1
Method: (§1) Adhesion of cells to recombinant full-length human CX3CL1 was monitored under physiological flow using a Cellix VenaFlux microfluidics platform with connected fluorescent microscope and camera, and using Vena8 Fluoro+ Biochips (Cellix) pre-coated with anti-His monoclonal antibody (25 μg/mL; R&D Systems) and His-tagged full-length CX3CL1 (15 μg/mL; R&D Systems).
Flow Adhesion for Human B-Lymphocyte Cell Line RPMI-8226
Cells were cultured in RPMI 1640 medium with GlutaMAX and 20% FBS (HyClone, Perbio). Before each experiment, cells were centrifuged at 320 g and resuspended to 5×10^6 cells per ml in RPMI 1640 with 1% FBS. Cells were pre-incubated for 15 minutes at room temperature with CX3CR1 antagonist in an 8-step 3-fold dilution series starting at 3.3 μM. DMSO concentration was kept constant for all antagonist concentrations at 0.1%. Cells were pumped through the channels of the Vena8 Fluoro+ biochip at 0.5 dynes per cm2 for 3 m prior to capturing microscope images for quantification. Cells adhering to channels were counted and the mean values across five images in each channel were used for calculating the concentration-response curves.

CX3CR1 [3] = biological target: T1, CX3CR1; assay: hCX3CR1 [125I]-CX3CL1 displacement binding (SPA); conditions: CHO-hCX3CR1 membranes, [125I]-CX3CL1, SPA beads
Method: hCX3CR1 [^125I]-CX3CL1 Displacement Binding (SPA)
CHO-hCX3CR1 membranes (3 μg per well) together with […] [^125I]-CX3CL1 (Perkin Elmer) and different concentrations of competitor compound were incubated together with 400 μg/well WGA coated PVT SPA beads (Perkin Elmer) in 50 mM HEPES (pH 7.4), 10 mM MgCl2, 1 mM EDTA and 0.1% Gelatin in a Greiner polystyrene flat-bottom 384-well plate. The plate was incubated for 20 h at room temperature before the radioactivity was measured using a MicroBeta Trilux reader (PerkinElmer). The DMSO concentration was held constant at 1%.

CX3CR1 [4] = biological target: T1, CX3CR1; assay: CX3CR1-dependent cell adhesion to recombinant CX3CL1 in human whole blood under flow; assay type: cell-based; conditions: recombinant full-length CX3CL1
Method: as §1
CX3CR1-Dependent Cell Adhesion to Recombinant CX3CL1 in Human Whole Blood Under Flow
Human whole blood from healthy volunteers was collected using heparin as anti-coagulant. […] Compound stocks or DMSO vehicle were added to 0.5 or 1.0 ml aliquots of blood such that the final concentration of DMSO was 0.1%, corresponding to a 1000-fold dilution of compound stock. Blood was pre-incubated with compound at room temperature for 60 minutes with gentle shaking. DiOC6 (Invitrogen, 5 μM) or Hoechst 33342 (Invitrogen, 300 μM) dye was subsequently added to fluorescently label cells and enable their detection during the flow adhesion assay. To monitor adhesion, blood was allowed to flow through the channels of a Vena8 Fluoro+ biochip at 2.25 dynes per cm^2 for 3-6 minutes prior to capturing images for quantification. Fluorescent cells adhering to the channels were counted and the mean and/or total count across five to six images in each channel were used for calculating concentration-response curves.

CX3CR1 [5] = biological target: T1, CX3CR1; assay: hCX3CR1 [3H]-AZD8797 competitive binding assay (filter); conditions: CHO-hCX3CR1 membranes, 2 nM [3H]-AZD8797
Method in brief: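 CHO-hCX3CR1 membranes (9 μg/well) were incubated 2 h at room temperature with 2 nM [3H]-AZD8797 and varying competitor concentrations. Buffer: 25 mM HEPES pH 7.4, 10 mM MgCl2, 1 mM CaCl2, 0.5% BSA, 1% DMSO. Bound ligand was collected by vacuum filtration, washed in ice-cold buffer with 500 mM NaCl, and counted by scintillation.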

T1 sequence (P49238 whole entry): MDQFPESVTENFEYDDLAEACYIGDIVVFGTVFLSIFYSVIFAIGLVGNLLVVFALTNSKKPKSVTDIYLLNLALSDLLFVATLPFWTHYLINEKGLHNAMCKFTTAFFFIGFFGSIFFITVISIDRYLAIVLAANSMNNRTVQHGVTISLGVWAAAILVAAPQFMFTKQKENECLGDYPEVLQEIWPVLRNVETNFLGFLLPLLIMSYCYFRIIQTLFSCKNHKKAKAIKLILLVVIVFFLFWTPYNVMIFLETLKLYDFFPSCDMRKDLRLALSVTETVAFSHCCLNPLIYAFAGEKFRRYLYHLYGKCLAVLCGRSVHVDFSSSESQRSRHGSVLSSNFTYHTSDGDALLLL

EC50 (CX3CR1 [1]) [nM] | IC50 (CX3CR1 [2]) [nM] | IC50 (CX3CR1 [3]) [nM] | IC50 (CX3CR1 [4]) [nM] | IC50 (CX3CR1 [5]) [nM] | SMILES
43 | 6 | 104 | 150 | 13 | CC(C)C[C@H](CO)Nc1nc(C[C@@H](C)c2cccc(F)c2F)nc(NS(C)(=O)=O)n1 (single isomer, unassigned) [Example 144, N-(4-((R*)-2-(2,3-Difluorophenyl)propyl)-6-(((R)-1-hydroxy-4-methylpentan-2-yl)amino)-1,3,5-triazin-2-yl)methanesulfonamide]
50 | – | – | 691 | 18 | COc1ccc([C@H](C)Cc2nc(N[C@@H](CO)CC(C)C)nc(NS(C)(=O)=O)n2)c(F)n1 (single isomer, unassigned) [Example 85, N-(4-((R*)-2-(2-Fluoro-6-methoxypyridin-3-yl)propyl)-6-(((R)-1-hydroxy-4-methylpentan-2-yl)amino)-1,3,5-triazin-2-yl)methanesulfonamide]
400 | 128 | > 10000 | 2460 | 55 | COc1ncc([C@H](C)Cc2nc(N[C@@H](CO)CC(C)C)nc(NS(C)(=O)=O)n2)cc1F (single isomer, unassigned) [Example 7, N-(4-((R*)-2-(5-Fluoro-6-methoxypyridin-3-yl)propyl)-6-(((R)-1-hydroxy-4-methylpentan-2-yl)amino)-1,3,5-triazin-2-yl)methanesulfonamide]
